Source: patent US7615646B2, “Chiral indole intermediates and their fluorescent cyanine dyes containing functional groups” (Carnegie Mellon University, priority 2002, dated 2009)

Assay: Measurement of pKa values of pH-sensitive cyanine dyes (fluorescence intensity versus pH)
Format: physicochemical
Details: for lowering of dye pKa relative to dye 1: Cl on the unquaternized indolenine unit; for pKa: observed in aqueous phosphate buffers via fluorescence, excitation 640 nm, emission 680 nm
Method: The general method of pKa determination was performed as follows. Purified dye was dissolved in water to give a bulk stock solution (if necessary, a limited amount of acetonitrile was added to ensure solubility). By experiment, the volume of this stock solution that was required to be added to 10.0 ml of water+0.1% v/v trifluoroacetic acid, in order to give an absorbance of 0.5±0.02 at the dye peak wavelength, was determined. This volume of bulk stock solution was then added to 10.0 ml of water, to be used as the working stock solution.
Aqueous phosphate buffers were prepared covering the region of pH 4-9 {see “Data for Biochemical Research”, p. 432, 3rd edition, R. M. C Dawson, D. C. Elliott, W. H. Elliott & K. M. Jones, 1987 Oxford University Press. Buffers outside the listed range were made by adding in orthophosphoric acid or sodium hydroxide}. Plastic fluorescence cuvettes were then charged with 3.5 ml of each buffer. A fixed volume of dye working stock solution (in the range 50-250 μl) was added to a cuvette of buffer, the solution mixed and the fluorescence signal measured immediately {Perkin Elmer LS55 fluorimeter, excitation 640 nm. Emission spectrum was scanned and fluorescence intensity value at 680 nm recorded}. This was repeated for all cuvettes. The graph of fluorescence intensity versus pH was plotted using PRISM, the data fitted to a sigmoidal dose-response curve and the pKa value extracted as the calculated IC50 value from the fitting.

Molecule	lowering of dye pKa relative to dye 1	pKa
3-(5-carboxypentyl)-2-[(1E,3E,5E)-5-(7-chloro-3,3-dimethyl-5-sulfo-1,3-dihydro-2H-indol-2-ylidene)penta-1,3-dienyl]-3-methyl-5-sulfo-1-(4-sulfobutyl)-3H-indolium [Dye 4]	~0.8 units	
CC1(C)C(/C=C/C=C/C=C2/Nc3ccc(Cl)cc3C2(C)C)=[N+](CCCCS(=O)(=O)[O-])c2ccc(S(=O)(=O)O)cc21 [Dye 7, 2-[(1E,3E,5E)-5-(5-chloro-3,3-dimethyl-1,3-dihydro-2H-indol-2-ylidene)penta-1,3-dienyl]-3,3-dimethyl-5-sulfo-1-(4-sulfobutyl)-3H-indolium]	0.3-0.4 units	
CC1(C)C(/C=C/C=C/C=C2/Nc3ccc(Cl)cc3C2(C)C)=[N+](CCCCS(=O)(=O)[O-])c2ccc(S(=O)(=O)O)cc21 [Example 7]		6.65
CC1(CCCCCC(=O)O)C(/C=C/C=C/C=C2/Nc3c(Cl)cc(S(=O)(=O)O)cc3C2(C)C)=[N+](CCCCS(=O)(=O)[O-])c2ccc(S(=O)(=O)O)cc21 (stereo not shown) [Dye 4, 3-(5-carboxypentyl)-2-[(1E,3E,5E)-5-(7-chloro-3,3-dimethyl-5-sulfo-1,3-dihydro-2H-indol-2-ylidene)penta-1,3-dienyl]-3-methyl-5-sulfo-1-(4-sulfobutyl)-3H-indolium]		6.2
CC1(C)C(/C=C/C=C/C=C2/Nc3ccc(S(=O)(=O)O)cc3C2(C)CCCCCC(=O)O)=[N+](CCCCS(=O)(=O)[O-])c2ccc(S(=O)(=O)O)cc21 (stereo not shown) [Dye 1, 2-{(1E,3E,5E)-5-[3-(5-carboxypentyl)-3-methyl-5-sulfo-1,3-dihydro-2H-indol-2-ylidene]penta-1,3-dienyl}-3,3-dimethyl-5-sulfo-1-(4-sulfobutyl)-3H-indolium]		7
CC1(C)C(/C=C/C=C/C=C2/Nc3ccc(S(=O)(=O)O)cc3C2(C)C)=[N+](CCCCS(=O)(=O)[O-])c2ccc(Cl)cc21 [Example 9]		7.36
CC1(C)C(/C=C/C=C/C=C2/Nc3ccccc3C2(C)C)=[N+](CCCCS(=O)(=O)[O-])c2ccc(S(=O)(=O)O)cc21 [Example 5]		7
CC1(C)C(/C=C/C=C/C=C2/Nc3ccc(S(=O)(=O)O)cc3C2(C)CCCCCC(=O)O)=[N+](CCCCS(=O)(=O)[O-])c2ccc(Cl)cc21 (stereo not shown) [Example 3]		7.44
CC1(CCCCCC(=O)O)C(/C=C/C=C/C=C2/Nc3c(Cl)cc(Cl)cc3C2(C)C)=[N+](CCCCS(=O)(=O)[O-])c2ccc(S(=O)(=O)O)cc21 (stereo not shown) [Dye 2, 3-(5-carboxypentyl)-2-[(1E,3E,5E)-5-(5,7-dichloro-3,3-dimethyl-1,3-dihydro-2H-indol-2-ylidene)penta-1,3-dienyl]-3-methyl-5-sulfo-1-(4-sulfobutyl)-3H-indolium]	~1.0 units	6.05
CC1(C)C(/C=C/C=C/C=C2/Nc3ccc(C#N)cc3C2(C)C)=[N+](CCCCS(=O)(=O)[O-])c2ccc(S(=O)(=O)O)cc21 [Example 8]		6.65
CC1(CCCCCC(=O)ON2C(=O)CCC2=O)C(/C=C/C=C/C=C2/Nc3c(Cl)cc(S(=O)(=O)O)cc3C2(C)C)=[N+](CCCCS(=O)(=O)[O-])c2ccc(S(=O)(=O)O)cc21 (stereo not shown) [Dye 16.3, 3-(5-Carboxypentyl)-2-[(1E,3E,5E)-5-(7-chloro-3,3-dimethyl-5-sulfo-1,3-dihydro-2H-indol-2-ylidene)penta-1,3-dienyl]-3-methyl-5-sulfo-1-(4-sulfobutyl)-3H-indolium, N-hydroxysuccinimidyl ester]		6.2
CC1(C)C(/C=C/C=C/C=C2/Nc3ccc(S(=O)(=O)O)cc3C2(C)C)=[N+](CCCCS(=O)(=O)[O-])c2ccc(S(=O)(=O)O)cc21 [Dye 6, 2-[(1E,3E,5E)-5-(3,3-dimethyl-5-sulfo-1,3-dihydro-2H-indol-2-ylidene)penta-1,3-dienyl]-3,3-dimethyl-5-sulfo-1-(4-sulfobutyl)-3H-indolium]		7
